Read-outs that look alike come from different tables or passages of the source.
How the values were obtained:
[1] = tested on: P. aeruginosa PAM3062, which overexpresses the MexAB-OprM efflux pump; type: in vivo, Pseudomonas aeruginosa; settings: neutropenic rats, lung, 1.5 hr IV infusion, 24 hours after start of treatment
Experimental: Rats are made neutropenic by administration of a 75 mg/kg dose of cyclophosphamide 2 days prior to infection. Immediately prior to infection, rats are anesthetized with isoflurane. Lung infection is established by intratracheal instillation of ˜1×10^7 CFU/lung. P. aeruginosa PAM3062, which overexpresses the MexAB-OprM efflux pump, is used for infection. All treatments are initiated 4 hours after infection and are administered by 1.5 hr IV infusion twice daily. Rats are sacrificed 24 hours after the start of treatment; lungs are homogenized, serially diluted, and plated to determine colony counts.

[2] = tested on: P. aeruginosa, PAM1723, overexpressing the MexAB-OprM efflux pump; type: cell-based, Pseudomonas aeruginosa; settings: lowest EPI concentration giving antibacterial activity with levofloxacin at 1/8 of its MIC, MHB, 20 h at 35° C.
Method in brief: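 Checkerboard microdilution in Mueller Hinton Broth, with EPI concentrations varied along one axis. The inoculum was 5 times 10^5 CFU/ml from early-log culture. Plates were incubated 20 h at 35° C, and growth was read at 650 nm and by visual inspection.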

Row | Structure (SMILES) | MPC8 (Minimum Potentiating Concentration) [2] | other results
1 | NCCN(CCN)C(=O)CC[C@H](N)C(=O)N[C@H](Cc1ccc(C(F)(F)F)cc1)C(=O)Nc1cccc(B(O)O)c1 [Compound 2] | B (B = MPC8 of 2.5 μg/ml to less than 10 μg/mL.) | Δlog CFU ([1]; levofloxacin 100 (50 BID) mg/kg + EPI 40 (20 BID) mg/kg 24 hr dose): −1.74
2 | NCCN(CCN)C(=O)CC[C@H](N)C(=O)N[C@H](CCc1ccc(C(F)(F)F)cc1)C(=O)Nc1ccc2c(c1)B(O)OC2 [Compound 6, (S)-2-amino-N5,N5-bis(2-aminoethyl)-N1-((R)-1-(1-hydroxy-1,3-dihydrobenzo[c][1,2]oxaborol-6-ylamino)-1-oxo-4-(4-(trifluoromethyl)phenyl)butan-2-yl)pentanediamide] | B (B = MPC8 of 2.5 μg/ml to less than 10 μg/mL.) | Δlog CFU ([1]; levofloxacin 100 (50 BID) mg/kg + EPI 16 (8 BID) mg/kg 24 hr dose): −2.99
3 | NCCN(CCN)C(=O)CC[C@H](N)C(=O)N[C@H](CCc1ccc(C(F)(F)F)cc1)C(=O)Nc1cccc(B(O)O)c1 [Compound 14, 3-((R)-2-((S)-2-amino-5-(bis(2-aminoethyl)amino)-5-oxopentanamido)-4-(4-(trifluoromethyl)phenyl)butanamido)phenylboronic acid] | B (B = MPC8 of 2.5 μg/ml to less than 10 μg/mL.) | Δlog CFU ([1]; levofloxacin 100 (50 BID) mg/kg + EPI 20 (10 BID) mg/kg 24 hr dose): −1.13
4 | CC1(C)OB(O)c2cc(NC(=O)[C@@H](Cc3ccc(C(F)(F)F)cc3)NC(=O)[C@@H](N)CCC(=O)N(CCN)CCN)ccc21 [Compound 20, (S)-2-Amino-N5,N5-bis(2-aminoethyl)-N1-((R)-1-(1-hydroxy-3,3-dimethyl-1,3-dihydrobenzo[c][1,2]oxaborol-6-ylamino)-1-oxo-3-(4-(trifluoromethyl)phenyl)propan-2-yl)pentanediamide] | A (A = MPC8 of less than 2.5 μg/mL.) | Δlog CFU ([1]; levofloxacin 100 (50 BID) mg/kg + EPI 10 (5 BID) mg/kg 24 hr dose): −1.75
5 | CC1(C)OB(O)c2c1ccc(F)c2NC(=O)[C@@H](CCc1ccc(C(F)(F)F)cc1)NC(=O)[C@@H](N)CCC(=O)N(CCN)CCN [Compound 103, (S)-2-amino-N^5,N^5-bis(2-aminoethyl)-N^1-((R)-1-(6-fluoro-1-hydroxy-3,3-dimethyl-1,3-dihydrobenzo[c][1,2]oxaborol-7-ylamino)-1-oxo-4-(4-(trifluoromethyl)phenyl)butan-2-yl)pentanediamide] | B (B = MPC8 of 2.5 μg/ml to less than 10 μg/mL.) | –
6 | CC1(C)OB(O)c2cc(NC(=O)[C@@H](Cc3ccc(C(F)(F)F)cc3)NC(=O)[C@@H](N)CCCNC(=O)C(CN)CN)ccc21 [Compound 104, (S)-2-amino-5-(3-amino-2-(aminomethyl)propanamido)-N-((R)-1-(1-hydroxy-3,3-dimethyl-1,3-dihydrobenzo[c][1,2]oxaborol-6-ylamino)-1-oxo-3-(4-(trifluoromethyl)phenyl)propan-2-yl)pentanamide] | B (B = MPC8 of 2.5 μg/ml to less than 10 μg/mL.) | –
7 | CC1(C)OB(O)c2cc(C(=O)NC[C@@H](CCc3ccc(C(F)(F)F)cc3)NC(=O)[C@@H](N)CCC(=O)N(CCN)CCN)ccc21 [Compound 106, (S)-2-amino-N^5,N^5-bis(2-aminoethyl)-N^1-((R)-1-(1-hydroxy-3,3-dimethyl-1,3-dihydrobenzo[c][1,2]oxaborole-6-carboxamido)-4-(4-(trifluoromethyl)phenyl)butan-2-yl)pentanediamide] | B (B = MPC8 of 2.5 μg/ml to less than 10 μg/mL.) | –
8 | CC1(C)OB(O)c2cc(NC[C@@H](CCc3ccc(C(F)(F)F)cc3)NC(=O)[C@@H](N)CCC(=O)N(CCN)CCN)ccc21 [Compound 107, (S)-2-amino-N^5,N^5-bis(2-aminoethyl)-N^1-((R)-1-(1-hydroxy-3,3-dimethyl-1,3-dihydrobenzo[c][1,2]oxaborol-6-ylamino)-4-(4-(trifluoromethyl)phenyl)butan-2-yl)pentanediamide] | A (A = MPC8 of less than 2.5 μg/mL.) | –
9 | CC1(C)OB(O)c2cc(NC[C@@H](Cc3ccc(C(F)(F)F)cc3)NC(=O)[C@@H](N)CCC(=O)N(CCN)CCN)ccc21 [Compound 108, (S)-2-amino-N^5,N^5-bis(2-aminoethyl)-N^1-((R)-1-(1-hydroxy-3,3-dimethyl-1,3-dihydrobenzo[c][1,2]oxaborol-6-ylamino)-3-(4-(trifluoromethyl)phenyl)propan-2-yl)pentanediamide] | A (A = MPC8 of less than 2.5 μg/mL.) | –

Reference: patent publication US8933018B2, “Boron containing polybasic bacterial efflux pump inhibitors and therapeutic uses thereof” (priority 2011, dated 2015)
